Data on three molecules can be found in article PMC10994617, “In silico study, synthesis, and antineoplastic evaluation of thiazole-based sulfonamide derivatives and their silver complexes with expected carbonic anhydrase inhibitory activity” (Journal of Medicine and Life, 2023).

For orientation: IC50 means the midpoint of a concentration-inhibition curve.

The subject of one experiment is MCF-7. Kind of experiment: MTT cytotoxicity assay, MCF-7 breast cancer cell line. The format is cell-based, human. The following applies: MCF-7, MTT. An excerpt:
(§1) To evaluate the antitumor activity of the newly synthesized sulfonamide carbonic anhydrase inhibitors (compounds M3, M4, and M5), we employed cell line assays using 3-(4,5-dimethylthiazol-2-yl)-2,5-diphenyltetrazolium (MTT). Two cell types were utilized in this study: MCF-7, a breast cancer cell line, to assess the effects of the compounds on cancer cells, and MCF10A, a normal breast epithelial cell line, to evaluate the effects on non-cancerous cells. These cell lines were procured from the Iranian National Cell Bank at the Pasteur Institute. MCF-7 cells were cultured in RPMI-1640 medium, while MCF10A cells were cultured in DMEM: F12 medium. Both media were supplemented with 10% fetal bovine serum (FBS), followed by the addition of antibiotics (100 µg/ml streptomycin and 100 units/ml penicillin). The cells were maintained in a humidified atmosphere at 37°C with 5% carbon dioxide. For cell passaging, a trypsin/EDTA solution (Gibco) and phosphate-buffered saline (PBS) were utilized. Cell viability was assessed using MTT from Sigma-Aldrich. Each type of cell (MCF-7 and MCF10A) was cultured separately in 96-well plates (1.4 × 10^4 cells per well with 200 µl of fresh medium) after a full day had passed (temperature of 37°C in a 5% CO2 environment). The supernatant was removed, and MTT solution at a concentration of 200 µl was added to each well and then incubated for four hours at a temperature of 37°C. After the end of the incubation period and to dissolve the formazan crystals, 100 µl of dimethyl sulfoxide (DMSO) was added, and the plate was left in a shaker at a temperature of 37°C until it was confirmed that all the crystals had completely dissolved. An ELISA reader (Model Wave xs2, BioTek) was used to measure cell vitality by absorption at 570 nm and calculate the IC50 values.

The test system of the next experiment is MCF10A. Kind of experiment: MTT cytotoxicity assay, MCF10A normal breast epithelial cell line. The format is cell-based. The following applies: MCF10A normal cells, read-out: MCF10A IC50 (µM) ± SD.
From the text: as §1
(Formazan colour is commonly taken as a measure of viable cells.)

The mark [1] stands for this setting: Homo sapiens, MCF7, read-out: MCF-7 IC50 (µM) ± SD.

Like-named read-outs stand apart in the source and are kept apart here.

In the case of `CN(C)c1ccc(/C=N/c2nc(Nc3ccc(S(N)(=O)=O)cc3)cs2)cc1` [Compound M4], the half-inhibitory concentration (IC50) in the experiment with MCF-7 (Homo sapiens, MCF7, read-out: IC50 against MCF-7 cells) was found to be 77.4 µg/mL; in the experiment with MCF-7 (setting [1]), 77.4 ± 3.31 µM; with MCF10A (Homo sapiens, MCF-10A) it was 52.5 ± 3.31 µM.

Consider `NS(=O)(=O)c1ccc(Nc2csc(N=Cc3ccc(O)cc3)n2)cc1` (stereo in doubt) [Compound M3, (Z)-4-((2-((4-hydroxybenzylidene)amino)thiazol-4-yl)amino) benzene sulfonamide], for which the IC50 turned out to be 87.7 ± 2.16 µM with MCF-7 (setting [1]) and 135 ± 4.19 µM in the experiment on MCF10A (Homo sapiens, MCF-10A).

With `N.N.[Cl][Pt][Cl]` [Cisplatin, reference compound], the 50% inhibitory concentration (IC50) in the experiment with MCF-7 (read-out: MCF-7 IC50 (µM) ± SD) worked out at 15.1 ± 2.25 µM; in the experiment with MCF10A it was 13.6 ± 3.45 µM.
